Holding throughout (type): cell-based
Assay [1] concerns the target T1, engineered chimeric LGIC receptor SEQ ID NO:33 (α7-nAChR ligand binding domain with GlyRα1 Cys-loop, GlyRα1 ion pore domain) (Homo sapiens, UniProt P36544, F159M/H163T/I152M/R155K/V154L/W156N/Y151P).
T1 construct: expressed in transfected cells; host or cells: Xenopus oocytes (cDNA injection)
The assay can be described thus: Two electrode voltage clamp currents in Xenopus oocytes expressing the receptor. The note with it: Xenopus oocytes; FIG. 5. As for the experimental part: (§1) For Xenopus oocyte studies, injections of cDNAs encoding for ion channels at a final concentration of 0.04 μg/μL were performed using a proprietary automated injection device and receptor expression examined at least two days later. Oocytes were poked with two electrodes and their membrane potential maintained at −80 mV throughout the experiment. All recordings were performed at 18° C. and cells were superfused with OR2 medium containing in mM: NaCl 82.5, KCl 2.5, HEPES 5, CaCl2.2H2O 1.8, MgCl2.6H2O 1, pH 7.4. Recordings progressed if oocytes had sufficiently low holding current, in which case they were then subjected to ligand or test compound application (5-10 s wash intervals), with 100 s of wash in between doses. Currents evoked by acetylcholine or other agonists were recorded using an automated process equipped with standard two electrode voltage clamp configuration (TEVC). Data were captured and analyzed using HiQScreen proprietary data acquisition and analysis software running under Matlab (Mathworks Inc.). Acetylcholine was prepared as a concentrated stock solution (10-1 M) in water and then diluted in the recording medium to obtain the desired test concentration. Nicotine was diluted in water as stock solution (10-1 M), kept frozen and diluted immediately prior to the experiment at the desired concentration. Compounds were prepared as stock solution (10-1M) in OR2 and then diluted in the recording medium to obtain the desired test concentration. Stock solution for Compound-1 was made in OR2 at pH 5 adjusted with HCl. To assess that dilution at the final concentration of this stock solution introduced no significant changes, the pH of the final solution was confirmed using a colorimetric assay (Galietta L. J. V., et al. 2001. FEBS Letters 499: 220-224. Kruger W., et al. (2005). Neuroscience Letters 380: 340-345.)
(§2) To better understand the impact of the heterologous domains that had been inserted into the channels, the ligand-dependent response profiles of wild type α7-nAChR and various engineered chimeric LGIC receptors to acetylcholine as well as to non-native ligands TC-6987, AZD-0328, and Facinicline/RG3487 were assessed. Receptors were transiently expressed in […] cells and currents were measured on an automated patch clamp system (Fluxion Biosciences) following 1 second addition of drug. Inclusion of a GlyRα1 Cys-loop sequence in the extracellular domain increased the potency of all small molecules on the engineered receptor (leftward shift in EC50) (e.g. SEQ ID NO:35, FIG. 4C vs SEQ ID NO:16, FIG. 4B). […] Inclusion of both the Cys-loop and β1-β2 loop sequences of GlyRα1 in the extracellular domain reduced the sensitivity by about 1 log from that observed with the full Cys-loop sequence alone, but further increased conductance approximately 2-fold and slowed the rate of deactivation of the channel (SEQ ID NO:41, FIG. 4E vs. SEQ ID NO:33, FIG. 4D).
(Two-electrode voltage clamp holds a large cell at a set potential and records current.)

Assay [2] has as its target T2, engineered chimeric LGIC receptor SEQ ID NO:41 (as SEQ ID NO:33, further comprising the β1-β2 loop domain from GlyRα1) (Homo sapiens, UniProt P36544, F159M/H163T/I152M/K68T/N69T/Q70M/R155K/V154L/W156N/Y151P).
T2 construct: expressed in transfected cells; host or cells: Xenopus oocytes (cDNA injection)
Described as above. The settings on record: FIG. 5. The protocol:
as §1, §2

The target of assay [3] is T3, SEQ ID NO:33 with substitution W77M (Homo sapiens, UniProt P36544, F159M/H163T/I152M/R155K/V154L/W156N/W77M/Y151P).
T3 construct: expressed in transfected cells; host or cells: Lenti-X 293T (HEK293T) cells, pcDNA3.1(+) plasmid
T3 sequence (P36544 with tags, fused parts or gaps W77M/Y151P/I152M/V154L/R155K/W156N/F159M/H163T): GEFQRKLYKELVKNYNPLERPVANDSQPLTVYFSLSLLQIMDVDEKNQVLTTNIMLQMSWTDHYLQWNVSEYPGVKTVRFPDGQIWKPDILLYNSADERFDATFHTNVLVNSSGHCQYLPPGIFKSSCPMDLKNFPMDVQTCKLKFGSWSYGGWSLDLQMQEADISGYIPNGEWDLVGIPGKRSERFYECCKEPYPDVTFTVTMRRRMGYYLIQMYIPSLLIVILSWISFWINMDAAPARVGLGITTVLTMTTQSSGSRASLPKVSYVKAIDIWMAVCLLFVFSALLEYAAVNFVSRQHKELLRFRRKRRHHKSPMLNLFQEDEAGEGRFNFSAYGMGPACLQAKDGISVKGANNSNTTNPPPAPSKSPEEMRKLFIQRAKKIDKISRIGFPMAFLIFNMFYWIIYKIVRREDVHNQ
Description: Plate reader YFP quench (anion reporter) assay, dose response curves. The note with it: FIG. 9B. The protocol: (§3) Lenti-X 293T cells (LX293T, Clontech) were maintained in DMEM containing 10% FBS and 1% penicillin/streptomycin (Invitrogen). […] The next day, the cells were transiently transfected with 0.1 μg of DNA per well using standard Fugene protocol (Promega). On the day of assay, cells were washed 2 times in 1× extracellular solution (1×ECS: 140 mM NaCl, 5 mM KCl, 1 mM MgCl2, 2 mM CaCl2, 10 mM HEPES, 10 mM glucose, pH 7.2, mOsms 300). After the last wash, 100 μL of 1×ECS was added to the wells and the plate was incubated at 37° C. for 30 min. While incubating the plate, the drugs were diluted to a 2× concentration in 1×ECS-NaI (same components as 1×ECS except the 140 mM NaCl was replaced by 140 mM NaI). The plates were then read on a Flexstation3 (Molecular Devices). Each well, 8 wells at a time, of the plate is read for 2 min using a Flexstation3 (Molecular Devices) as follows: 1) a baseline YFP fluorescence is read for 17 sec, 2) 100 μL of ligand is added, and 3) the changes in YFP fluorescence are then measured every 1.3 sec for the remaining time.
(§4) To further tune the responsiveness of the engineered LGIC receptors to native and non-native ligands, the binding pocket of each ligand in the alpha7-nAChR was modeled and the amino acid residues that form the binding pocket were mapped. […]

Assay [4] addresses T4, engineered chimeric LGIC receptor SEQ ID NO:41 (Homo sapiens, UniProt P36544, F159M/H163T/I152M/K68T/N69T/Q70M/R155K/V154L/W156N/Y151P).
T4 construct: expressed in transfected cells; host or cells: Lenti-X 293T cells stably expressing YFP (H148Q/I152L) reporter; pcDNA3.1(+) plasmid
Description: Plate reader YFP quench plots. The settings on record: FIG. 7. The protocol:
as §3, §4

T1 sequence (P36544 with tags, fused parts or gaps Y151P/I152M/V154L/R155K/W156N/F159M/H163T): as the sequence (P36544 with tags, fused parts or gaps W77M/Y151P/I152M/V154L/R155K/W156N/F159M/H163T) above, with M55W counted along it
T4 sequence (P36544 with tags, fused parts or gaps K68T/N69T/Q70M/Y151P/I152M/V154L/R155K/W156N/F159M/H163T): as the sequence (P36544 with tags, fused parts or gaps W77M/Y151P/I152M/V154L/R155K/W156N/F159M/H163T) above, with K46T, N47T, Q48M, M55W counted along it
T2 sequence (P36544 with tags, fused parts or gaps K68T/N69T/Q70M/Y151P/I152M/V154L/R155K/W156N/F159M/H163T): as the sequence (P36544 with tags, fused parts or gaps W77M/Y151P/I152M/V154L/R155K/W156N/F159M/H163T) above, with K46T, N47T, Q48M, M55W counted along it

Regarding `c1cnc2c(c1)C[C@@]1(CN3CCC1CC3)O2` [AZD-0328], the “fold more sensitive than wild type α7-nAChR” value in assay [1] is “approximately 3 fold”. Besides, in assay [2], the “sensitivity of SEQ ID NO:41 to ligand compared with wild type α7-nAChR” value is on record as “comparably sensitive”. Further, the “increase in EC50 (rightward shift) compared to unmutated SEQ ID NO:33” value in assay [3] was over 2 log. Further, the “response of Chimera #41 compared with Chimera #33” value in assay [4] is reported as “responds to lower doses”.

These data come from patent US10538571B2, “Compositions and methods for neurological diseases” (Coda Biotherapeutics, Inc., priority 2017, dated 2020).
